Assay: mn = molality of the nth substance listed, in mol/kg
Settings: 101 kPa, Liquid; for viscosity: Capillary tube (Ostwald / Ubbelohde) method

O=C(Oc1ccccc1)c1ccccc1O [phenyl salicylate] + CC#N
Settings | mass density [kg/m3] | viscosity [mPa·s]
293.15 K, m1 = 0.0096 | 783.179 | 0.3086
293.15 K, m1 = 0.0128 | 783.379 | 0.3087
293.15 K, m1 = 0.016 | 783.559 | 0.3088
293.15 K, m1 = 0.0192 | 783.709 | 0.3091
293.15 K, m1 = 0.0224 | 783.871 | 0.3092
293.15 K, m1 = 0.0257 | 784.031 | 0.3094
293.15 K, m1 = 0.0321 | 784.222 | 0.3097
298.15 K, m1 = 0.0097 | 777.771 | 0.2867
298.15 K, m1 = 0.0129 | 777.981 | 0.2869
298.15 K, m1 = 0.0161 | 778.151 | 0.2871
298.15 K, m1 = 0.0194 | 778.309 | 0.2873
298.15 K, m1 = 0.0226 | 778.451 | 0.2875
298.15 K, m1 = 0.0258 | 778.609 | 0.2876
298.15 K, m1 = 0.0323 | 778.835 | 0.288
303.15 K, m1 = 0.0097 | 772.334 | 0.2649
303.15 K, m1 = 0.013 | 772.545 | 0.265
303.15 K, m1 = 0.0162 | 772.724 | 0.2652
303.15 K, m1 = 0.0195 | 772.856 | 0.2653
303.15 K, m1 = 0.0227 | 773.025 | 0.2655
303.15 K, m1 = 0.026 | 773.165 | 0.2656
303.15 K, m1 = 0.0326 | 773.351 | 0.2659
308.15 K, m1 = 0.0098 | 766.875 | 0.2453
308.15 K, m1 = 0.0131 | 767.071 | 0.2455
308.15 K, m1 = 0.0164 | 767.241 | 0.2457
308.15 K, m1 = 0.0197 | 767.385 | 0.2459
308.15 K, m1 = 0.023 | 767.558 | 0.2461
308.15 K, m1 = 0.0263 | 767.695 | 0.2463
308.15 K, m1 = 0.0329 | 767.859 | 0.2466
310.15 K, m1 = 0.0098 | 764.642 | 0.238
310.15 K, m1 = 0.0131 | 764.835 | 0.2381
310.15 K, m1 = 0.0164 | 765.015 | 0.2382
310.15 K, m1 = 0.0197 | 765.153 | 0.2384
310.15 K, m1 = 0.023 | 765.331 | 0.2385
310.15 K, m1 = 0.0263 | 765.465 | 0.2386
310.15 K, m1 = 0.0329 | 765.629 | 0.2388
313.15 K, m1 = 0.0099 | 761.351 | 0.2272
313.15 K, m1 = 0.0132 | 761.545 | 0.2274
313.15 K, m1 = 0.0165 | 761.711 | 0.2276
313.15 K, m1 = 0.0198 | 761.849 | 0.2278
313.15 K, m1 = 0.0231 | 762.019 | 0.2279
313.15 K, m1 = 0.0264 | 762.135 | 0.228
313.15 K, m1 = 0.033 | 762.341 | 0.2282
